According to patent US12396996B2, “Compounds, pharmaceutical compositions, and methods of their use in reversing cancer chemoresistance” (priority 2019, dated 2025):

Experiments:
[1] = system: 786-0 and HMLE-Snail (E-Snail) cells versus WT7, HMLE, HK-2, NP-1 and BEAS-2B cells; test: Proliferation assay on normal and cancer cell lines; format: cell-based, human; conditions: 100 nM chaetocin for 1 day
Description: Mesenchymal, TIC-rich, chemotherapy-resistant cell lines used in this experiment are the clear cell renal carcinoma cell line 786-0 and the human mammary epithelial (HMLE) cell line in which the zinc finger protein SNAI1 (SNAIL) is overexpressed, E-SNAIL. The isogenic epithelial, TIC-depleted, chemotherapy sensitive cell lines used as controls are the clear cell renal carcinoma cell line WT7 (modified 786-0 cells) and the human mammary epithelial (HMLE) cell with […].
To test if other mesenchymal, TIC-rich, chemotherapy resistant cell lines of different tissue origin (e.g. kidney) are also sensitive to chaetocin treatment, normal and cancerous breast (control) and renal cells were treated in culture with 100 nM chaetocin for 1 day, after which cell growth was assayed using a proliferation assay (FIG. 1C). The tested cells included a 786-0 clear cell renal cell carcinoma (ccRCC) cell line, which is defective in the Von Hippel-Lindau tumor suppressor (VHL), enriched in TIC, and difficult to eliminate by conventional chemotherapy in patients carrying this mutation. WT7 cell line is a modified 786-0 cell line in which VHL is re-introduced artificially, rendering them epithelial, TIC-depleted and susceptible to chemotherapy. […]

[2] = system: 786-0, A549 and HMLE-TWIST cells; test: Order of chaetocin and chemotherapy, caspase-3 cleavage; format: cell-based, human
Protocol: FIGS. 4D-4E show a set of bar plots and schematics of experiments in which chaetocin (80 nM) was administered for 15 hours either alone, two days before (FIG. 4E) or after a 2 day treatment with a chemotherapeutic drug (FIG. 4D; 300 nM cisplatin or 10 nM Doxorubicin) to 786-0 clear cell renal carcinoma cells, A549 lung cancer cells, and HMLE-TWIST (E-Twist) breast cancer cells. Cell death was assayed with cleaved caspase 3 fluorescent intensity. These experiments were designed to test the prediction of an epigenetic model for chaetocin-mediated reversal of chemotherapy resistance, namely that chaetocin must be added transiently for a short duration (15 hours) 2 days prior to chemotherapy to sensitize the cells to treatment. If the order was reversed (FIG. 4D), there should be no effect. The results of FIGS. 4A-4E indicate that chaetocin primes cancer cells for apoptotic death by chemotherapy through epigenetic reversal of chemotherapy resistance.
In a separate set of experiments, to test the generality of chaetocin in reversing the chemotherapy resistance of mesenchymal, TIC-rich cancers, well-characterized mesenchymal TIC-rich cell lines from ccRCC 786-0 and lung cancer cells (A549) were used along with HMLE-TWIST cells described above. […]

[3] = system: HMLE-TWIST cells; conditions: 0.3 μM, 15 hours, versus untreated;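 also: transcript levels measured by RNA-seq of total RNA extracted from treated cells, given as log2 change relative to untreated cells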
Protocol: To determine whether the transcriptional changes associated with chaetocin treatment support this apparent change in cell state (reversal of mesenchymal fate), RNA-seq experiments were performed on cells treated for 15 hours with 0.3 μM of chaetocin after which total RNA was extracted and subjected to deep sequencing.

[4] = system: Suv39H1 and Suv39H2; conditions: cited from earlier work
[5] = system: HMLE-TWIST cells; test: RNA-seq after two days of chaetocin and two days after removal (Enrichr); format: cell-based, human; conditions: versus DMSO, cells found to have mycoplasma infection
Protocol: Briefly, HMLE-TWIST cells were treated for two days with increasing doses of chaetocin (0.1, 0.15, 0.2, 0.5 uM). The cells were then washed and incubated for an additional 2 days in chaetocin-free media. Cells were collected before chaetocin treatment and at the 2-day and 4-day timepoints. Total RNA was extracted and subjected to deep sequencing. All chaetocin-treated transcriptomes were compared to cells treated with DMSO for 2 and 4 days which served as controls.
Using FACS (see FIGS. 3A-3X), it was shown that mesenchymal, TIC-rich HMLE-TWIST cells treated with increasing doses of chaetocin lose their mesenchymal properties. […] All transcriptomes were compared to the corresponding DMSO-treated controls.
The results for two representative chaetocin concentrations ([…]) are shown. Other concentrations produced a highly similar list of pathways. Only pathways whose enrichment is associated with an adjusted p value of less than 0.05 are indicated. Pathways listed in italicized font are those which have a known role in promoting the formation of the mesenchymal state in published literature. The pathways marked with an asterisk in tables above are those having known roles as tumor suppressors.
The results for two representative chaetocin concentrations ([…]) are shown. Other concentrations produced a highly similar list of pathways. […]

With CN1C(=O)[C@@]23C[C@]4([C@]56C[C@@]78SS[C@](CO)(C(=O)N7[C@H]5Nc5ccccc56)N(C)C8=O)c5ccccc5N[C@@H]4N2C(=O)[C@@]1(CO)SS3 [chaetocin] the inhibition of proliferation [1] was “selectively inhibits the growth of mesenchymal, TIC-rich, chemotherapy resistant breast and kidney cancer cell lines”, the “sensitization to chemotherapy (caspase-3 cleavage)” value ([2]; 80 nM for 15 hours, 2 days before cisplatin or doxorubicin) was “sensitizes them to chemotherapeutic killing” and the “sensitization to chemotherapy (caspase-3 cleavage)” value ([2]; order reversed: chaetocin after chemotherapy) was “did not produce similar chemotherapeutic killing of cells”. The “Log2foldChange ALDH1A1” value [3] was −2.01, the “Log2foldChange BIRC5 (survivin-1)” value [3] was 0.491 and the “Log2foldChange CD24” value [3] was −0.912. For the same molecule, the “Log2foldChange CDH1 (E-cadherin)” value [3] was 4.25, the “Log2foldChange CLDN2” value [3] was 6.00 and the “Log2foldChange CLDN4” value [3] was 3.68. For the same molecule, the “Log2foldChange CLDN6” value [3] was 7.30, the “Log2foldChange CLDN9” value [3] was 4.59 and the “Log2foldChange CLDN16” value [3] was 2.77. For the same molecule, the “Log2foldChange CLDN23” value [3] was 1.18, the “Log2foldChange COL2A1” value [3] was 4.34 and the “Log2foldChange CRB1” value [3] was 9.40. The “Log2foldChange CST6” value [3] was 2.12, the “Log2foldChange Errb2” value [3] was −0.829 and the “Log2foldChange GJA1” value [3] was −0.627. The “Log2foldChange GLI-2” value [3] was −0.941, the “Log2foldChange KRT7” value [3] was 1.59 and the “Log2foldChange KRT8” value [3] was 1.30. For the same molecule, the “Log2foldChange KRT18” value [3] was 1.95, the “Log2foldChange KRT19” value [3] was 4.46 and the “Log2foldChange KRT34” value [3] was 5.49. The “Log2foldChange KRT80” value [3] was 1.24, the “Log2foldChange KRT81” value [3] was 1.47 and the “Log2foldChange KRT86” value [3] was 3.10. For the same molecule, the “Log2foldChange LAMB1” value [3] was −1.05, the “Log2foldChange MMP14” value [3] was −1.14 and the “Log2foldChange NRF-2” value [3] was −0.862. The “Log2foldChange Nanog” value [3] was −2.21, the “Log2foldChange O ct4” value [3] was −1.76 and the “Log2foldChange PTEN” value [3] was −0.780. For the same molecule, the “Log2foldChange SNAI2” value [3] was −0.623, the “Log2foldChange TWIST1” value [3] was −0.549 and the “Log2foldChange WISP1” value [3] was −1.06. For the same molecule, the “Log2foldChange ZEB1” value [3] was −0.666, the inhibitor specificity [4] was “specific inhibitor of Suv39H1 and Suv39H2 heterochromatin proteins” and the “pathways changed after two days of treatment” value ([5]; 0.1, 0.15, 0.2, 0.5 uM for two days) was “repression of several mesenchymal pathways and an increase in DNA repair and two important tumor suppressing pathways, p53 and Rb”. The “persistence of transcriptional changes” value ([5]; 2 days after chaetocin removal) was “transcriptional changes persist after chaetocin removal”.
